Structures can show the parent of a compound that is named as a salt.
Each compound was assayed against T1, PDE7A1 (Homo sapiens, UniProt Q13946) (assay: In vitro inhibition of phosphodiesterase 7 (enzymatic activity, cAMP substrate 50 nM)). Settings: PDE7A1 expressed in Sf 21 insect cells; cAMP 50 nM; reaction 10 minutes; read-out: IC50 (PDE7).
T1 construct: made in house; host or cells: Sf21 insect cells (baculovirus expression system)
Type: biochemical
Description: The capacity of the compounds of the invention to inhibit cyclic nucleotide phosphodiesterases was evaluated by measuring their IC50 (concentration necessary to inhibit the enzymatic activity by 50%).
PDE3A3, PDE4D3, and PDE7A1 were cloned and expressed in insect cells Sf 21 using the baculovirus expression system. The source of PDE103 and of PDE503 were human cell lines (respectively TPH1 human monocytes and MCF7 human breast adenocarcinoma). The various types of phosphodiesterases were obtained partially purified on an anion exchange column (Mono Q) according to a method adapted from Lavan B. E., Lakey T., Houslay M.D., Biochemical Pharmacology, 1989;38(22):4123-4136.
Measurement of the enzymatic activity for the various types of PDE was then made according to a method adapted from Thompson W. J. et al., Advances in Cyclic Nucleotide Research, ed. G. Brooker et al. New York: Raven Press, 1979;10:69-92.
The substrate used was cGMP for PDE1 and PDE5 and cAMP for PDE3, PDE4, and PDE7. The substrate concentration was 0.2 μM for PDE1, PDE3, and PDE5, 0.25 μM for PDE4, and 50 nM for PDE7.
The enzymatic reaction was stopped after 1 hour for PDE1, PDE3, and PDE5 and 10 minutes for PDE4 and PDE7.

T1 sequence (Q13946 whole entry, species assumed): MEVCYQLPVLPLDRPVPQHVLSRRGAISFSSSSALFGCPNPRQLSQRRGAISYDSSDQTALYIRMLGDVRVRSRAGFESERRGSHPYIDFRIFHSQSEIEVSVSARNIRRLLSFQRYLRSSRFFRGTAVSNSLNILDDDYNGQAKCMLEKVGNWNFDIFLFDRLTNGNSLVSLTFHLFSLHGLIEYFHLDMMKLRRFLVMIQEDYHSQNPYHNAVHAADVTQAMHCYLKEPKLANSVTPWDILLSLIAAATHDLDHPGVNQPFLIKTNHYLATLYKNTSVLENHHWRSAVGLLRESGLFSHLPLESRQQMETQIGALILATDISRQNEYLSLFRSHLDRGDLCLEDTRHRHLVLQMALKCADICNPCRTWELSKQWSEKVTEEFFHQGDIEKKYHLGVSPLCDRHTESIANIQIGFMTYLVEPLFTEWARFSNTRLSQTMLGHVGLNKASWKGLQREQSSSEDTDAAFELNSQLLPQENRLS

Structure (SMILES)	IC50 [nM]
COc1cc(-c2nn(C)/c(=N/C3CCCCC3)s2)cc(O)c1OC [I18,4, 5-(5-Cyclohexylimino-4-methyl-4,5-dihydro[1,3,4]thiadiazol-2-yl)-2,3-dimethoxy-phenol;compound with trifluoro-methanesulfonic Acid]	92
Cn1nc(-c2ccc(Cl)cc2)s/c1=N\C1CCCCC1 [I18,5, [5-(4-Chloro-phenyl)-3-methyl-3H-[1,3,4]thiadiazol-2-ylidene]-cyclohexyl-amine]	1200
Cn1nc(-c2cccc(C(=O)O)c2)s/c1=N\C1CCCCC1 [I21,1, 3-(5-Cyclohexylimino-4-methyl-4,5-dihydro-[1,3,4]thiadiazol-2-yl)-benzoic acid]	870
Cn1nc(-c2ccc(C(=O)O)cc2)s/c1=N\C1CCCCC1 [I37,1, 4-(5-Cyclohexylimino-4-methyl-4,5-dihydro-[1,3,4]thiadiazol-2-yl)-benzoic acid]	550
Cn1nc(-c2ccc(C(=O)NO)cc2)s/c1=N\C1CCCCC1 [I37,2, 4-(5-Cyclohexylimino-4-methyl-4,5-dihydro-[1,3,4]thiadiazol-2-yl)-N-hydroxy-benzamide]	1200
Cn1nc(-c2ccc(C(N)=O)cc2)s/c1=N\C1CCCCC1 [I37,3, 4-(5-Cyclohexylimino-4-methyl-4,5-dihydro-[1,3,4]thiadiazol-2-yl)-benzamide]	62
Cn1nc(-c2ccc(C(=O)Nc3nn[nH]n3)cc2)s/c1=N\C1CCCCC1 [I37,4, 4-(5-Cyclohexylimino-4-methyl-4,5-dihydro-[1,3,4]thiadiazol-2-yl)-N-(2H-tetrazol-5-yl)-benzamide hydrochloride salt]	150
Cn1nc(-c2ccc(C(=O)Nc3cccc4cccnc34)cc2)s/c1=N\C1CCCCC1 [I37,5, 4-(5-Cyclohexylimino-4-methyl-4,5-dihydro[1,3,4]thiadiazol-2-yl)-N-quinolin-8-yl-benzamide]	93
COc1ccc(NC(=O)c2ccc(-c3nn(C)/c(=N/C4CCCCC4)s3)cc2)c(OC)n1 [I37,6, 4-(5-Cyclohexylimino-4-methyl-4,5-dihydro[1,3,4]thiadiazol-2-yl)-N-(2,6-dimethoxy-pyridin-3-yl)-benzamide]	97
CC(C)NC(=O)c1ccc(-c2nn(C)/c(=N/C3CCCCC3)s2)cc1 [I37,7, 4-(5-Cyclohexylimino-4-methyl-4,5-dihydro[1,3,4]thiadiazol-2-yl)-N-isopropyl-benzamide]	86

Other lines, results leading:

IC50 [nM]	Structure (SMILES)
64	CCNC(=O)c1ccc(-c2nn(C)/c(=N/C3CCCCC3)s2)cc1 [I37,8, 4-(5-Cyclohexylimino-4-methyl-4,5-dihydro[1,3,4]thiadiazol-2-yl)-N-ethyl-benzamide]
75	CN(C)CCNC(=O)c1ccc(-c2nn(C)/c(=N/C3CCCCC3)s2)cc1 [I37,9, 4-(5-Cyclohexylimino-4-methyl-4,5-dihydro[1,3,4]thiadiazol-2-yl)-N-(2-dimethylamino-ethyl)-benzamide]
44	Cn1nc(-c2ccc(C(=O)NCc3ccncc3)cc2)s/c1=N\C1CCCCC1 [I37,10, 4-(5-Cyclohexylimino-4-methyl-4,5-dihydro[1,3,4]thiadiazol-2-yl)-N-pyridin-4-ylmethyl-benzamide]
72	CN1CCC(N(C)C(=O)c2ccc(-c3nn(C)/c(=N/C4CCCCC4)s3)cc2)CC1 [I37,11, 4-(5-Cyclohexylimino-4-methyl-4,5-dihydro-[1,3,4]thiadiazol-2-yl)-N-methyl-N-(1-methyl-piperidin-4-yl)-benzamide]

— patent US20030045557A1, “Thiadiazoles and oxadiazoles and their use as phosphodiesterase-7 inhibitors” (priority 2000, published 2003)
